Biological target: Protease (Human immunodeficiency virus 1, UniProt Q9YQ12)
Experiment: Inhibition of HIV1 protease

Chain of Protease (Q9YQ12 whole entry): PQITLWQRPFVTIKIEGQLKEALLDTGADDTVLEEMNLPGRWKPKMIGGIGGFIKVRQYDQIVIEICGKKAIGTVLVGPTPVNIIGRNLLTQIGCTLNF

Row | SMILES | IC50 [µM]
1 | C=C1[C@@H](C)[C@H]2[C@H](Cc3ccccc3)NC(=O)[C@]23[C@H](OC(C)=O)/C=C/[C@@H](C)C[C@@H](CO)C/C=C/[C@H]3[C@@H]1O | 22
2 | C=C1[C@@H](C)[C@H]2[C@H](Cc3cccc(O)c3)NC(=O)[C@]23[C@H](OC(C)=O)/C=C/[C@@H](C)C[C@@H](CO)C/C=C/[C@H]3[C@@H]1O | 38
3 | C=C1[C@@H](C)[C@H]2[C@H](Cc3ccccc3)NC(=O)[C@]23[C@H](OC(C)=O)/C=C/[C@@H](C)C[C@@](O)(CO)C/C=C/[C@H]3[C@@H]1O | 45
4 | C=C1[C@@H](C)[C@H]2[C@H](Cc3cccc(O)c3)NC(=O)[C@]23[C@H](OC(C)=O)/C=C/[C@@H](C)C[C@@](O)(CO)C/C=C/[C@H]3[C@@H]1O | > 50
5 | C=C1[C@@H](C)[C@H]2[C@H](Cc3ccc(O)c(O)c3)NC(=O)[C@]23[C@H](OC(C)=O)/C=C/[C@@H](C)C[C@@H](CO)C/C=C/[C@H]3[C@@H]1O | > 50
6 | C=C1[C@@H](C)[C@H]2[C@H](Cc3ccc(O)cc3)NC(=O)[C@]23[C@H](OC(C)=O)/C=C/[C@@H](C)C[C@@H](CO)C/C=C/[C@H]3[C@@H]1O | 35
7 | C=C1[C@@H](C)[C@H]2[C@H](Cc3ccccc3)NC(=O)[C@]23[C@H](OC(C)=O)/C=C/[C@@H](C)C[C@@H](C)C/C=C/[C@H]3[C@@H]1O | 3

— ChEMBL document CHEMBL1147361, “Microbial transformation of L-696,474, a novel cytochalasin as an inhibitor of HIV-1 protease” (J Nat Prod, 1993)
